Measurements: patent US20240076272A1, “Activators of Heme Regulated Inhibitor Kinase (HRI)” (The Brigham and Women`s Hospital, Inc., priority 2019, published 2024)
Read-outs that look alike come from different tables or passages of the source.

What was measured:
[1] = test system: human melanoma CRL-2813 cells; test: sulforhodamine B (SRB) cell proliferation assay; type: cell-based; settings: 5 days, read-out: IC50 (concentration that inhibits growth of human melanoma CRL-2813 cells by 50%)
Description: Cells were seeded in 96-well plates and maintained for 5 days in the presence of 0.5 μM to 20 μM of individual compound, and cell proliferation was measured by the sulforhodamine B (SRB) assay according to previous reports (see e.g., Palakurthi et al, Cancer Res. 60 (2000) 2919-2925): briefly, at the end of a 5-day treatment, cells were fixed in 10% cold trichloroacetic acid. Cell number was estimated by measuring the remaining bound dye of sulforhodamine B after washing. The percentage of growth was calculated by using the equation: 100×[(T-T0)/(C-T0)], where T and C represent the absorbance in treated and control cultures at Day 5, and T0 at time zero, respectively. If T was less than T0, cell death had occurred and was calculated from 100×[(T-T0)/T0].
All 4-CF3-ΦOcAlkΦUs were tested in the sulforhodamine B (SRB) cell proliferation assay to establish the concentrations that inhibit human melanoma CRL-2813 cells growth by 50% (IC50) (see Table 1). This activity reflects a combined effect of membrane permeability and overall anti-proliferative effects that include on target and off-target effects.

[2] = test system: eIF2α phosphorylation (ATF-4 5′UTR luciferase reporter); test: surrogate eIF2α phosphorylation dual-luciferase reporter (DLR) assay; type: cell-based; settings: F/R luciferase ratio normalized to DMSO wells (F/R=1); for fold induction at 1.25 µM: read-out: Fold stimulation of ATF-4 Surrogate eIF2α @ 1.25 μM; for fold induction at 5 µM: read-out: Fold stimulation of ATF-4 Surrogate eIF2α @ 5 μM
Description: The dual luciferase expression vector and other plasmids used in the Examples provided herein have been previously reported (see e.g., Ziegeler et al, J. Biol. Chem. 285 (2010) 15408-15419). The dual luciferase surrogate eIF2α phosphorylation assay, has also been previously reported (see e.g., Chen et al, Nat. Chem. Biol. 7 (2011) 610-616). Briefly, a dual Renilla and Firefly luciferase mammalian reporter vector that transcribes both mRNAs from the same bi-directional enhancer/promoter complex was utilized for generation of surrogate eIF2α phosphorylation assay (see e.g., Ziegeler et al, J. Biol. Chem. 285 (2010) 15408-15419). Both mRNAs contained the same 90 nucleotide plasmid derived 5′UTR. In addition, 5′UTR of the Firefly luciferase open reading frame was fused in-frame to the 267 nucleotide ATF-4 5′UTR (see e.g., Chen et al, Nat. Chem. Biol. 7 (2011) 610-616).
Cells expressing firefly and renilla luciferases were assayed with a dual glow luciferase assay kit, per manufacturer's instruction (Promega Inc., Madison, WI). The data calculations were carried out as the ratio of firefly to renilla luciferase signal (see e.g., Ziegeler et al, J. Biol. Chem. 285 (2010) 15408-15419). Dose-response curves were obtained, and triplicate data points were fitted to the logistical sigmoidal model using nonlinear least-squares regression performed in GraphPad Prism 6.
All newly synthesized N,N′-disubstituted ureas were initially evaluated by testing in the surrogate eIF2α phosphorylation dual-luciferase reporter (DLR) assay (see e.g., Chen et al, Nat. Chem. Biol. 7 (2011) 610-616; and Ziegeler et al, J. Biol. Chem. 285 (2010) 15408-15419). Briefly, this assay takes advantage of the fact that activated HRI phosphorylates eIF2α which inhibits eIF2 guanine nucleotide exchange factor eIF2B, responsible for exchanging the GDP in the eIF2·GDP complex for GTP. The reduction in the recycling of eIF2·GDP into eIF2·GTP interferes with the formation of eIF2·GTP·Met-tRNAi ternary complex. […] These include mRNA coding for activating transcription factor 4 (ATF-4) (see e.g., Aktas et al, Oncotarget, 4 (2013) 1606-1617; Aktas et al, Oncotarget, 6 (2015) 6902-6914; and Aktas et al, Proc. Natl. Acad. Sci. U.S.A. 95 (1998) 8280-8285).
In the present assay, firefly (F) luciferase mRNA was fused to the 5′UTR of ATF-4 mRNA that had multiple uORFs, while renilla (R) luciferase mRNA was fused to a 5′UTR lacking any uORFs. Agents that reduce the amount of the eIF2·GTP·Met-tRNAi ternary complex, such as N,N′-disubstituted ureas that activate HRI, increase F luciferase expression while reducing the R luciferase expression, resulting in an increased F/R luciferase ratio. The ureas of the present application were tested at 10 μM, 5 μM, 2.5 μM, and 1.25 μM concentrations in 96-well assay plates (see e.g., Chen et al, Nat. Chem. Biol. 7 (2011) 610-616; and Bai et al, ChemBioChem, 14 (2013) 1255-1262). The activity scores as the F/R ratios were calculated for every compound-treated well and normalized to F/R ratio of vehicle-treated (DMSO) wells in the same plate, arbitrarily set at 1 (F/R=1). Data obtained in the surrogate dual-luciferase eIF2α phosphorylation (DLR) assay for the series of 1-phenyl-3/4-(4-trifluorometyl) phenoxy-cycloalkyl)ureas (4-CF3-ΦcAlkΦUs) and 1-phenyl-3-(5-(4-(trifluoromethyl) phenoxy)pyrimidin-2-yl)ureas (4-CF3-ΦOPyΦUs) described herein are shown in Tables 1-2.

Structure (SMILES) | IC50 ([1]; Homo sapiens, CRL2813, 120 h) [nM] | fold induction at 1.25 µM [2] | fold induction at 5 µM [2] | melting point [°C] | IC50 [1] [nM] | Fold stimulation of ATF-4 Surrogate eIF2α @ 1.25 μM [2] [fold] | Fold stimulation of ATF-4 Surrogate eIF2α @ 5 μM [2] [fold]
O=C(Nc1ccc(F)c(F)c1)N[C@H]1C[C@H](Oc2ccc(C(F)(F)F)cc2)C1 [Compound 10-IV, 1-(3,4-difluorophenyl)-3-(trans-3-(4-(trifluoromethyl)phenoxy)cyclobutyl)urea] | 5500 ± 700 | 2.2 ± 0.5 | 4.5 ± 0.4 | 179.9 to 182 |  |  | 
N#Cc1cc(F)cc(NC(=O)Nc2ncc(Oc3ccc(C(F)(F)F)cc3)cn2)c1 [Compound 4-py, 1-(3-Cyano-5-fluorophenyl)-3-(5-(4-(trifluoromethyl)phenoxy)pyrimidin-2-yl)urea] |  |  |  | 267.5 to 270 |  |  | 
O=C(Nc1cccc(C(F)(F)F)c1)N[C@H]1C[C@@H](Oc2ccc(C(F)(F)F)cc2)C1 [Compound 2-IVc, 1-(cis-3-(4-(Trifluoromethyl)phenoxy)cyclobutyl)-3-(3-(trifluoromethyl)phenyl)urea] | 2600 ± 400 | 1.2 ± 0.3 | 6.2 ± 1.2 | 166.6 to 168.5 |  |  | 
N#Cc1cc(F)cc(NC(=O)N[C@H]2CC[C@H](Oc3ccc(C(F)(F)F)cc3)CC2)c1 [Compound 9-VI, 1-(3-Cyano-5-fluorophenyl)-3-(trans-4-(4-(trifluoromethyl)phenoxy)cyclohexyl)urea] |  |  |  | 219.8 to 222 | 1400 ± 300 | 3.7 ± 0.8 | 6.1 ± 1.1
N#Cc1cccc(NC(=O)Nc2ncc(Oc3ccc(C(F)(F)F)cc3)cn2)c1 [Compound 3-py, 1-(3-Cyanophenyl)-3-(5-(4-(trifluoromethyl)phenoxy)pyrimidin-2-yl) urea] |  |  |  | 260.2 to 261.5 |  |  | 
N#Cc1cc(F)cc(NC(=O)N[C@H]2CC[C@H](Oc3ccc(C(F)(F)F)cc3)C2)c1 [Compound 4-V] | 1900 ± 1300 | 2.4 ± 0.3 | 8 ± 2 | 176.2 to 177.8 |  |  | 
O=C(Nc1cccc(F)c1F)N[C@H]1C[C@H](Oc2ccc(C(F)(F)F)cc2)C1 [Compound 11-IV, 1-(2,3-Difluorophenyl)-3-(trans-3-(4-(trifluoromethyl)phenoxy)cyclobutyl)urea] | 2300 ± 900 | 0.8 ± 0.1 | 6.2 ± 2.7 | 205.9 to 208 |  |  | 
Cc1ccc(F)cc1NC(=O)N[C@H]1CC[C@H](Oc2ccc(C(F)(F)F)cc2)C1 [Compound 7-V, 1-(5-Fluoro-2-methylphenyl)-3-((1S,3S)-3-(4-(trifluoromethyl)phenoxy)cyclopentyl)urea] | 8000 ± 2500 | 1.4 ± 0.1 | 1.3 ± 0.4 | 209.8 to 211.4 |  |  | 
O=C(Nc1cccc(C(F)(F)F)c1)Nc1ncc(Oc2ccc(C(F)(F)F)cc2)cn1 [Compound 2-py, 1-(5-(4-(Trifluoromethyl)phenoxy)pyrimidin-2-yl)-3-(3-(trifluoromethyl)phenyl)urea] |  |  |  | 232.5 to 234.8 |  |  | 
O=C(Nc1ccc(F)c(F)c1)Nc1ncc(Oc2ccc(C(F)(F)F)cc2)cn1 [Compound 10-py, 1-(3,4-Difluorophenyl)-3-(5-(4-(trifluoromethyl)phenoxy)pyrimidin-2-yl) urea] |  |  |  | 224.8 to 226.2 |  |  | 
N#Cc1cc(NC(=O)N[C@H]2CC[C@H](Oc3ccc(C(F)(F)F)cc3)C2)cc(C(F)(F)F)c1 [Compound 1-V, 1-(3-Cyano-5-(trifluoromethyl)phenyl)-3-((1S,3S)-3-(4-(trifluoromethyl)phenoxy)cyclopentyl)urea] | 1200 | 3.1 | 8.3 | 144.4 to 146.2 |  | 3.1 ± 0.7 | 8.3 ± 2.4
N#Cc1cccc(NC(=O)N[C@H]2C[C@H](Oc3ccc(C(F)(F)F)cc3)C2)c1 [Compound 3-IV, 1-(3-Cyanophenyl)-3-(trans-3-(4-(trifluoromethyl)phenoxy)cyclobutyl)urea] | 4900 | 1.6 | 3.5 ± 0.4 | 181.1 to 182.3 |  | 1.6 ± 0.2 | 
O=C(Nc1ccc(F)c(F)c1)N[C@H]1CC[C@H](Oc2ccc(C(F)(F)F)cc2)C1 [Compound 10-V, 1-(3,4-Difluorophenyl)-3-((1S,3S)-3-(4-(trifluoromethyl)phenoxy)cyclopentyl)urea] | 5200 ± 1500 | 0.9 ± 0.2 | 3.5 ± 0.7 | 175.4 to 177.5 |  |  | 
N#Cc1cc(NC(=O)Nc2ncc(Oc3ccc(C(F)(F)F)cc3)cn2)cc(C(F)(F)F)c1 [Compound 1-py, 1-(3-Cyano-5-(trifluoromethyl)phenyl)-3-(5-(4-(trifluoromethyl)phenoxy)pyrimidin-2-yl)urea] |  |  |  | 263.5 to 265.5 |  |  | 
O=C(Nc1ccc(F)c(F)c1)N[C@H]1CC[C@H](Oc2ccc(C(F)(F)F)cc2)CC1 [Compound 10-VI, 1-(3,4-Difluorophenyl)-3-(trans-4-(4-(trifluoromethyl)phenoxy)cyclohexyl)urea] | 1300 ± 300 | 2.9 ± 0.7 | 5.6 ± 1.2 | 228.2 to 229.8 |  |  | 
N#Cc1cccc(NC(=O)N[C@H]2C[C@@H](Oc3ccc(C(F)(F)F)cc3)C2)c1 [Compound 3-IVc, 1-(3-Cyanophenyl)-3-(cis-3-(4-(trifluoromethyl)phenoxy)cyclobutyl)urea] | > 10000 | 1.1 | 0.9 ± 0.1 | 203.7 to 206.8 |  | 1.1 ± 0.2 | 
N#Cc1cc(NC(=O)N[C@H]2C[C@@H](Oc3ccc(C(F)(F)F)cc3)C2)cc(C(F)(F)F)c1 [Compound 1-IVc, 1-(3-Cyano-5-(trifluoromethyl)phenyl)-3-(cis-3-(4-(trifluoromethyl)phenoxy)cyclobutyl)urea] | 900 | 4.3 | 8.4 ± 0.5 | 194.6 to 196.1 |  | 4.3 ± 0.6 | 
Cc1ccc(F)cc1NC(=O)Nc1ncc(Oc2ccc(C(F)(F)F)cc2)cn1 [Compound 7-py, 1-(5-Fluoro-2-methylphenyl)-3-(5-(4-(trifluoromethyl)phenoxy)pyrimidin-2-yl)urea] |  |  |  | 224.2 to 226.5 |  |  | 
